Laboratory results reported in a compilation of properties of binary mixtures (doi:10.3390/app10238342).

Assay: xn = mol fraction of the nth substance listed
Conditions: 96.7 kPa

SMILES: CC(=O)[O-].CCCCCCn1cc[n+](C)c1 + CS(C)=O
- viscosity (303.15 K, x1 = 0.057): 2.7 mPa·s
- viscosity (303.15 K, x1 = 0.187): 4.6 mPa·s
- viscosity (303.15 K, x1 = 0.257): 9.2 mPa·s
- viscosity (303.15 K, x1 = 0.341): 18.7 mPa·s
- viscosity (303.15 K, x1 = 0.446): 41 mPa·s
- viscosity (303.15 K, x1 = 0.58): 74 mPa·s
- viscosity (303.15 K, x1 = 0.757): 250 mPa·s
- viscosity (303.15 K, x1 = 0.868): 420 mPa·s
- viscosity (303.15 K, x1 = 1): 800 mPa·s
- viscosity (308.15 K, x1 = 0.057): 2.46 mPa·s
- viscosity (308.15 K, x1 = 0.341): 15.8 mPa·s
- viscosity (308.15 K, x1 = 0.446): 32 mPa·s
- viscosity (308.15 K, x1 = 0.58): 60 mPa·s
- viscosity (308.15 K, x1 = 0.757): 182 mPa·s
- viscosity (308.15 K, x1 = 0.868): 290 mPa·s
- viscosity (308.15 K, x1 = 1): 530 mPa·s
- viscosity (313.15 K, x1 = 0.187): 3.7 mPa·s
- viscosity (313.15 K, x1 = 0.257): 6.9 mPa·s
- viscosity (313.15 K, x1 = 0.341): 13 mPa·s
- viscosity (313.15 K, x1 = 0.446): 27 mPa·s
- viscosity (313.15 K, x1 = 0.757): 133 mPa·s
- viscosity (313.15 K, x1 = 0.868): 212 mPa·s
- viscosity (313.15 K, x1 = 1): 370 mPa·s
- viscosity (318.15 K, x1 = 0.057): 2 mPa·s
- viscosity (318.15 K, x1 = 0.187): 3.2 mPa·s
- viscosity (318.15 K, x1 = 0.257): 5.9 mPa·s
- viscosity (318.15 K, x1 = 0.341): 10.8 mPa·s
- viscosity (318.15 K, x1 = 0.58): 41 mPa·s
- viscosity (318.15 K, x1 = 0.868): 156 mPa·s
- viscosity (318.15 K, x1 = 1): 260 mPa·s
- viscosity (323.15 K, x1 = 0.057): 1.86 mPa·s
- viscosity (323.15 K, x1 = 0.187): 2.9 mPa·s
- viscosity (323.15 K, x1 = 0.257): 5.2 mPa·s
- viscosity (323.15 K, x1 = 0.341): 9.3 mPa·s
- viscosity (323.15 K, x1 = 0.446): 17.9 mPa·s
- viscosity (323.15 K, x1 = 0.58): 35 mPa·s
- viscosity (323.15 K, x1 = 0.757): 78 mPa·s
- viscosity (323.15 K, x1 = 0.868): 115 mPa·s
- viscosity (323.15 K, x1 = 1): 190 mPa·s
- viscosity (328.15 K, x1 = 0.057): 1.72 mPa·s
- viscosity (328.15 K, x1 = 0.187): 2.6 mPa·s
- viscosity (328.15 K, x1 = 0.257): 4.7 mPa·s
- viscosity (328.15 K, x1 = 0.341): 8.1 mPa·s
- viscosity (328.15 K, x1 = 0.446): 14.7 mPa·s
- viscosity (328.15 K, x1 = 0.58): 29 mPa·s
- viscosity (328.15 K, x1 = 0.757): 60 mPa·s
- viscosity (328.15 K, x1 = 0.868): 88 mPa·s
- viscosity (328.15 K, x1 = 1): 145 mPa·s
- viscosity (333.15 K, x1 = 0.057): 1.58 mPa·s
- viscosity (333.15 K, x1 = 0.187): 2.31 mPa·s
- viscosity (333.15 K, x1 = 0.257): 4.2 mPa·s
- viscosity (333.15 K, x1 = 0.58): 25 mPa·s
- viscosity (333.15 K, x1 = 0.757): 47 mPa·s
- viscosity (333.15 K, x1 = 0.868): 68 mPa·s
- viscosity (333.15 K, x1 = 1): 110 mPa·s
- viscosity (338.15 K, x1 = 0.057): 1.47 mPa·s
- viscosity (338.15 K, x1 = 0.257): 3.6 mPa·s
- viscosity (338.15 K, x1 = 0.341): 6.4 mPa·s
- viscosity (338.15 K, x1 = 0.446): 10.9 mPa·s
- viscosity (338.15 K, x1 = 0.58): 21.3 mPa·s
- viscosity (338.15 K, x1 = 0.868): 55 mPa·s
- viscosity (338.15 K, x1 = 1): 88 mPa·s

SMILES: CS(C)=O + CC(=O)[O-].CCCCCCn1cc[n+](C)c1
- viscosity (303.15 K, x2 = 0): 1.81 mPa·s
- viscosity (308.15 K, x2 = 0): 1.66 mPa·s
- viscosity (313.15 K, x2 = 0): 1.52 mPa·s
- viscosity (318.15 K, x2 = 0): 1.4 mPa·s
- viscosity (323.15 K, x2 = 0): 1.3 mPa·s
- viscosity (328.15 K, x2 = 0): 1.2 mPa·s
- viscosity (338.15 K, x2 = 0): 1.04 mPa·s
